Results as given in ChEMBL document CHEMBL5647694, “Novel orally bioavailable EZH1/2 dual inhibitors with greater antitumor efficacy than an EZH2 selective inhibitor” (Cancer Sci, 2017).

Key:
[1] = biological target: Tyrosine-protein kinase ABL2 (Homo sapiens) (UniProt P42684); test: Inhibition of N-terminal GST-fused truncated human ARG (2 to 52, 74 to 1182 residues) expressed in baculovirus-infected Sf21 cells using ABLtide as substrate at 1 uM in presence of ATP by Mobility shift assay
[2] = biological target: Epidermal growth factor receptor (Homo sapiens) (UniProt P00533); test: Inhibition of N-terminal GST-fused human EGFR cytoplasmic domain (669 to 1210 residues) expressed in baculovirus-infected Sf21 cells using Srctide as substrate at 1 uM in presence of ATP by Mobility shift assay
[3] = biological target: Ephrin type-A receptor 3 (Homo sapiens) (UniProt P29320); test: Inhibition of N-terminal GST-fused human EPHA3 cytoplasmic domain (579 to 983 residues) expressed in baculovirus-infected Sf21 cells using Blk/Lyntide as substrate at 1 uM in presence of ATP by Mobility shift assay
[4] = biological target: Tyrosine-protein kinase Fes/Fps (Homo sapiens) (UniProt P07332); test: Inhibition of N-terminal GST-fused full length human FES (1 to 413, 416 to 822 residues) expressed in baculovirus-infected Sf21 cells using Srctide as substrate at 1 uM in presence of ATP by Mobility shift assay
[5] = biological target: Tyrosine-protein kinase Fgr (Homo sapiens) (UniProt P09769); test: Inhibition of N-terminal GST-fused full length human FGR (1 to 529 residues) expressed in baculovirus-infected Sf21 cells using Srctide as substrate at 1 uM in presence of ATP by Mobility shift assay
[6] = biological target: Receptor-type tyrosine-protein kinase FLT3 (Homo sapiens) (UniProt P36888); test: Inhibition of N-terminal GST-fused human FLT3 cytoplasmic domain (564 to 993 residues) expressed in baculovirus-infected Sf21 cells using Srctide as substrate at 1 uM in presence of ATP by Mobility shift assay
[7] = biological target: Tyrosine-protein kinase HCK (Homo sapiens) (UniProt P08631); test: Inhibition of N-terminal GST-fused truncated human HCK (25 to 526 residues) expressed in baculovirus-infected Sf21 cells using Srctide as substrate at 1 uM in presence of ATP by Mobility shift assay
[8] = biological target: Receptor tyrosine-protein kinase erbB-4 (Homo sapiens) (UniProt Q15303); test: Inhibition of N-terminal GST-fused human HER4 cytoplasmic domain (676 to 1308 residues) expressed in baculovirus infected Sf21 cells using Srctide as substrate at 1 uM in presence of ATP by Mobility shift assay
[9] = biological target: Tyrosine-protein kinase ZAP-70 (Homo sapiens) (UniProt P43403); test: Inhibition of N-terminal GST-tagged full length human ZAP70 (1 to 619 residues) expressed in baculovirus-infected Sf21 cells using Blk/Lyntide as substrate at 1 uM in presence of ATP by Mobility shift assay
[10] = biological target: Aurora kinase B (Homo sapiens) (UniProt Q96GD4); test: Inhibition of human AurB at 1 uM by Mobility shift assay
[11] = biological target: Serine/threonine-protein kinase BRSK1 (Homo sapiens) (UniProt Q8TDC3); test: Inhibition of N-terminal GST-tagged full length human BRSK1 (1 to 778 residues) expressed in baculovirus-infected Sf21 cells using CHKtide as substrate at 1 uM in presence of ATP by Mobility shift assay
[12] = biological target: Calcium/calmodulin-dependent protein kinase type II subunit delta (Homo sapiens) (UniProt Q13557); test: Inhibition of N-terminal GST-tagged full length human CAMK2d (1 to 478 residues) expressed in baculovirus-infected Sf21 cells using GS peptide as substrate at 1 uM in presence of ATP by Mobility shift assay
[13] = biological target: Cyclin-dependent kinase 2/cyclin E1 (Homo sapiens) (UniProt P24864+P24941); test: Inhibition of N-terminal GST-tagged full length human CDK2 (1 to 298 residues)/N-terminal GST-tagged human CyclinE1 (1 to 410 residues) expressed in baculovirus-infected Sf21 cells using Modified Histone H1 as substrate at 1 uM in presence of ATP by Mobility shift assay
[14] = biological target: Casein kinase I isoform alpha (Homo sapiens) (UniProt P48729); test: Inhibition of N-terminal GST-fused full length human CK1alpha (1 to 337 residues) expressed in baculovirus expression system using CKtide as substrate at 1 uM in presence of ATP by Mobility shift assay
[15] = biological target: Mitogen-activated protein kinase 10 (Homo sapiens) (UniProt P53779); test: Inhibition of N-terminal GST-fused full length human JNK3 (1 to 426 residues) expressed in Escherichia coli expression system using Modified ERKtide as substrate at 1 uM in presence of ATP by Mobility shift assay
[16] = biological target: Ribosomal protein S6 kinase alpha-4 (Homo sapiens) (UniProt O75676); test: Inhibition of N-terminal GST-fused full length human MSK2 (1 to 772 residues) expressed in baculovirus expression system using Crosstide as substrate at 1 uM in presence of ATP by Mobility shift assay
[17] = biological target: Mitogen-activated protein kinase 11 (Homo sapiens) (UniProt Q15759); test: Inhibition of N-terminal GST-fused full length human p38beta (1 to 364 residues) expressed in Escherichia coli expression system using Modified Erktide as substrate at 1 uM in presence of ATP by Mobility shift assay
[18] = biological target: cGMP-dependent protein kinase 1 (Homo sapiens) (UniProt Q13976); test: Inhibition of N-terminal GST-fused human full length […] (1 to 686 residues) expressed in baculovirus expression system using Kemptide as substrate at 1 uM in presence of ATP by Mobility shift assay
[19] = biological target: Serine/threonine-protein kinase pim-3 (Homo sapiens) (UniProt Q86V86); test: Inhibition of N-terminal GST-tagged full length human PIM3 (1 to 326 residues) expressed in baculovirus expression system using S6K2 peptide as substrate at 1 uM in presence of ATP by Mobility shift assay
[20] = biological target: Protein kinase C alpha type (Homo sapiens) (UniProt P17252); test: Inhibition of N-terminal GST-fused human full length PKC-alpha (1 to 672 residues ) expressed in baculovirus expression system using PKC peptide as substrate at 1 uM in presence of ATP by Mobility shift assay
[21] = biological target: Protein kinase C beta type (Homo sapiens) (UniProt P05771); test: Inhibition of N-terminal GST-fused human full length PKC-beta2 (1 to 673 residues ) expressed in baculovirus expression system using PKC peptide as substrate at 1 uM in presence of ATP by Mobility shift assay
[22] = biological target: SRSF protein kinase 2 (Homo sapiens) (UniProt P78362); test: Inhibition of N-terminal GST-fused full length human SRPK2 (1 to 688 residues) expressed in baculovirus expression system using DYRKtide-F as substrate at 1 uM in presence of ATP by Mobility shift assay
[23] = biological target: Serine/threonine-protein kinase TBK1 (Homo sapiens) (UniProt Q9UHD2); test: Inhibition of N-terminal GST-fused full length human TBK1 (1 to 729 residues) expressed in baculovirus expression system using CKtide as substrate at 1 uM in presence of ATP by Mobility shift assay

Sequence of Tyrosine-protein kinase Fgr (Homo sapiens) (P09769 2-529 limits assumed): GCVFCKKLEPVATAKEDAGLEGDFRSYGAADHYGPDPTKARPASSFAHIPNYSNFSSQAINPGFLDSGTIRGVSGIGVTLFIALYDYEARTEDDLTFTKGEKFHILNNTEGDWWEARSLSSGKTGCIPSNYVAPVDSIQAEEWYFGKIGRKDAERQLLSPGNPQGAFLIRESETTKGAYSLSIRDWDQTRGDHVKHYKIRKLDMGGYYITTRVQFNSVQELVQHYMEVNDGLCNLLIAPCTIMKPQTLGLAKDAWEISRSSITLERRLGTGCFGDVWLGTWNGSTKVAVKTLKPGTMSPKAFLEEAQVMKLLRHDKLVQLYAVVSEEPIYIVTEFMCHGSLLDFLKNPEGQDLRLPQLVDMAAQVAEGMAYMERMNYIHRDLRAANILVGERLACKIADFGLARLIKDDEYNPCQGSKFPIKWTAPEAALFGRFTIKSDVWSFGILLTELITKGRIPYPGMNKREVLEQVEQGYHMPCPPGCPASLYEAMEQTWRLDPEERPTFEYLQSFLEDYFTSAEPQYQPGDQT
Sequence of Tyrosine-protein kinase Fes/Fps (Homo sapiens) (P07332 whole entry, the tested form may be a part): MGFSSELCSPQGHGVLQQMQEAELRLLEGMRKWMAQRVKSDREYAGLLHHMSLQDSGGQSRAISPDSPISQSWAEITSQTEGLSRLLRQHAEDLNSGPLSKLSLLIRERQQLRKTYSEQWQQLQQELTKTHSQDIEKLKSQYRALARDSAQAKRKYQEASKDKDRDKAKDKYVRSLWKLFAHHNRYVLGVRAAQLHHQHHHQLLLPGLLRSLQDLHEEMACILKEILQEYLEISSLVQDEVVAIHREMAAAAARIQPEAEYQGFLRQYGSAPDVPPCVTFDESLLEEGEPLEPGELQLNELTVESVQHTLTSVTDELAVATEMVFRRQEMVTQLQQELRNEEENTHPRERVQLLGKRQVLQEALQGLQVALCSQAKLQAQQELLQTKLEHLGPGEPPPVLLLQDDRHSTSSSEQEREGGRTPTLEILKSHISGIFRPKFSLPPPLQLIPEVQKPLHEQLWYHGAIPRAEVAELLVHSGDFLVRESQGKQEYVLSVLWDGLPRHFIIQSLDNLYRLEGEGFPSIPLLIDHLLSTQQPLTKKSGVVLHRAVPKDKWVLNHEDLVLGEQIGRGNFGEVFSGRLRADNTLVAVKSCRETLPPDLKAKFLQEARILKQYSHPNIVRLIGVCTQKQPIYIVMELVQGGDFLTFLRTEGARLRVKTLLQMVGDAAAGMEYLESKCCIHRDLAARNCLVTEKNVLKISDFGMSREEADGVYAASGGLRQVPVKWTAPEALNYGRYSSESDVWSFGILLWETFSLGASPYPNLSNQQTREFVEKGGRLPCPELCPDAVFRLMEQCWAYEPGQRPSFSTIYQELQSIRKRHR
Sequence of Ribosomal protein S6 kinase alpha-4 (Homo sapiens) (O75676 whole entry, looked up, the tested form may be a part): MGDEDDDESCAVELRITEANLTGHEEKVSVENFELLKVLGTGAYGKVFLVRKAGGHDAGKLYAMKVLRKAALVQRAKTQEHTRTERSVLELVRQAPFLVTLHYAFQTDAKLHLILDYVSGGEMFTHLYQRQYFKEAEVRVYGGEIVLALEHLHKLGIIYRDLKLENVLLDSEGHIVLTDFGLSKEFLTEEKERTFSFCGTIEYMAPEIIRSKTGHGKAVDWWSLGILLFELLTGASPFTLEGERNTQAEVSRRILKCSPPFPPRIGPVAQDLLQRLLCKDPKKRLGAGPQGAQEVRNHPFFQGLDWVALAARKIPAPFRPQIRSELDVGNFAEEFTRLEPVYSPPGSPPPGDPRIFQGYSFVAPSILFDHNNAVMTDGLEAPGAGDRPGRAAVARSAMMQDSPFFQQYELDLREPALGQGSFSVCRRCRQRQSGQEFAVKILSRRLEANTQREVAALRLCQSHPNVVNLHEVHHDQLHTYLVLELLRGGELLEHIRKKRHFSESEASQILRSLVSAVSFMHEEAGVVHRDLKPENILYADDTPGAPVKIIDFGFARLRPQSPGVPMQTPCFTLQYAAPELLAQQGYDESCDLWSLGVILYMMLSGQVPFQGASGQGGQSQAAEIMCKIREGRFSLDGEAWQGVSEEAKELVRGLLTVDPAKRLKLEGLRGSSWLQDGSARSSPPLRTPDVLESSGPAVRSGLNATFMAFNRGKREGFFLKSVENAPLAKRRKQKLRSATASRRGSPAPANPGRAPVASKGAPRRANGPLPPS
Sequence of Mitogen-activated protein kinase 10 (Homo sapiens) (P53779 whole entry, the tested form may be a part): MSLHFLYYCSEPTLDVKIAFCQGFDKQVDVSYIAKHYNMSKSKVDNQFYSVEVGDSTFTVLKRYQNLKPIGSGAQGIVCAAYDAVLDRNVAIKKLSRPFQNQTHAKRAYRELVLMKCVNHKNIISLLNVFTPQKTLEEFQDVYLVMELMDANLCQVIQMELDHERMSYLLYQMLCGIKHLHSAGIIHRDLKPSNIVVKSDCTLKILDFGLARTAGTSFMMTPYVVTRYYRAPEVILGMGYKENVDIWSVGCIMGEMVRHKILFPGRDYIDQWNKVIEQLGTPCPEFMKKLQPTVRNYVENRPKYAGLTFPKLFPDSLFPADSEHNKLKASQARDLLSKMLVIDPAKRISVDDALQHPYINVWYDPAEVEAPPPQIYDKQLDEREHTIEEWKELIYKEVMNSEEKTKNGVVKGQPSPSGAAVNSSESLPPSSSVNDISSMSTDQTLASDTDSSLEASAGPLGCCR
Sequence of Epidermal growth factor receptor (Homo sapiens) (P00533 whole entry, the tested form may be a part): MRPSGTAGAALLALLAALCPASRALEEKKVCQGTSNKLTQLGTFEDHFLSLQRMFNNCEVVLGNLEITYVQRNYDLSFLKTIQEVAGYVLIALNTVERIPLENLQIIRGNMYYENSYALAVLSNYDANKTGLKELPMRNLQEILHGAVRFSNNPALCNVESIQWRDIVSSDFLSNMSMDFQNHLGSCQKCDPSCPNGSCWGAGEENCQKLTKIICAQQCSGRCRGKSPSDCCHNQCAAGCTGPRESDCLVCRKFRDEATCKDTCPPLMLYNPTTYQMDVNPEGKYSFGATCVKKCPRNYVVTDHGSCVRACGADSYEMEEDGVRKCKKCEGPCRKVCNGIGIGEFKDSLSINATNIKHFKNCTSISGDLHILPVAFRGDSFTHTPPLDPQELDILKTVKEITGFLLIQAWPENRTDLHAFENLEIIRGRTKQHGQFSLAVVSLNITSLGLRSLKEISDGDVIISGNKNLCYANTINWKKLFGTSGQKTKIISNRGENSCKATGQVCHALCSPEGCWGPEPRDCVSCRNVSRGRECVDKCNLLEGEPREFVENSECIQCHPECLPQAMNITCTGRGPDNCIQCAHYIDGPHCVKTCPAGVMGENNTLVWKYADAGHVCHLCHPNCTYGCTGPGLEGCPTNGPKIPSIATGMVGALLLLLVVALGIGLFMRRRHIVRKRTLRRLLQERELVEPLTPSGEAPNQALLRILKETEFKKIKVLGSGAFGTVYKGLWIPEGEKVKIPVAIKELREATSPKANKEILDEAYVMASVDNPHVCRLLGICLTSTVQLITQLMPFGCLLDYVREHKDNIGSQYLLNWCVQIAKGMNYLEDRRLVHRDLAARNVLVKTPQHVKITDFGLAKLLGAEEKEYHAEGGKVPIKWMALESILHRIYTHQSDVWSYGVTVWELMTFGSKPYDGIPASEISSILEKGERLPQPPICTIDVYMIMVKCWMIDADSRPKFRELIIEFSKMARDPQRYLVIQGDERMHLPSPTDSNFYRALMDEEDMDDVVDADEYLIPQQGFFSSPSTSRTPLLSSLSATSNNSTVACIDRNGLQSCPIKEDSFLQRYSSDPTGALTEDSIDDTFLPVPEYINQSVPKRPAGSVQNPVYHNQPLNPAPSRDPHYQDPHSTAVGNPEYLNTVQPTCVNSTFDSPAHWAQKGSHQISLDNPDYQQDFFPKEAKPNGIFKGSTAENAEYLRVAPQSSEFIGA
Sequence of cGMP-dependent protein kinase 1 (Homo sapiens) (Q13976 whole entry, the tested form may be a part): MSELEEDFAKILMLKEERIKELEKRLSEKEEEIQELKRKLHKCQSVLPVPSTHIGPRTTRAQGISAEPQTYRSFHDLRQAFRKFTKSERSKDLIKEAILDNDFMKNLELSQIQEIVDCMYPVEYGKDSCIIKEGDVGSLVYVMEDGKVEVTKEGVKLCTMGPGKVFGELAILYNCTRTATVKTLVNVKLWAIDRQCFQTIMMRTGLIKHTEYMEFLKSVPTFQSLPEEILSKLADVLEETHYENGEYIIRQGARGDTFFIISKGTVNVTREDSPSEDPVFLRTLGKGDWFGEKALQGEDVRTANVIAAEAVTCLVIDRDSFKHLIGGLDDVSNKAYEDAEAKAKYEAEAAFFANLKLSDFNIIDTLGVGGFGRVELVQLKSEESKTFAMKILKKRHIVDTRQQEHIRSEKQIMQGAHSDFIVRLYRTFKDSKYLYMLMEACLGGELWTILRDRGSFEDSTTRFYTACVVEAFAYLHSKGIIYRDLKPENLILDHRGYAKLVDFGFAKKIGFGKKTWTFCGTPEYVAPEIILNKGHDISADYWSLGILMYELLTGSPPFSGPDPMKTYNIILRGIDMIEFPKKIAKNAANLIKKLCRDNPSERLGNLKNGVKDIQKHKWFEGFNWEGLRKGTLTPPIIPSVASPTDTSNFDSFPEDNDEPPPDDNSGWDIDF
Sequence of Aurora kinase B (Homo sapiens) (Q96GD4 whole entry, the tested form may be a part): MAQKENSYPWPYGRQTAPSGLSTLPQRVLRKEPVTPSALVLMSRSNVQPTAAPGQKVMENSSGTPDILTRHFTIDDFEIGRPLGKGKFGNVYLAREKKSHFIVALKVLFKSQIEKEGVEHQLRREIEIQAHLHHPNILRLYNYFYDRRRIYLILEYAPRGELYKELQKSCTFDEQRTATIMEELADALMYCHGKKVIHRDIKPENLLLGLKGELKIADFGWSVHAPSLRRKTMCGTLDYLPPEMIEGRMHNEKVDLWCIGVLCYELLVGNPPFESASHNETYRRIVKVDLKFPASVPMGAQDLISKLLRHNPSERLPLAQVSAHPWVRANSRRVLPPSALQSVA

Q: What does the source list for `Cc1cc(C)c(CNC(=O)c2cc(Br)c3c(c2C)O[C@@](C)([C@H]2CC[C@H](N(C)C)CC2)O3)c(=O)[nH]1`?
A: inhibition [1]: -7.4%; inhibition [2]: -2%; inhibition [3]: -8.6%; inhibition [4]: -0.6%; inhibition [5]: -4.6%; inhibition [6]: -2.6%; inhibition [7]: -2.5%; inhibition [8]: 2.6%; inhibition [9]: -6.2%; inhibition [10]: -3.7%; inhibition [11]: -1.9%; inhibition [12]: -1.4%; inhibition [13]: 19.9%; inhibition [14]: 5.2%; inhibition [15]: -2.9%; inhibition [16]: 0.1%; inhibition [17]: -3.1%; inhibition [18]: -4.3%; inhibition [19]: 5.7%; inhibition [20]: 4.7%; inhibition [21]: 3.2%; inhibition [22]: -1.6%; inhibition [23]: -4.6%

Q: How did the inhibition [1] turn out when `Cc1cc(C)c(CNC(=O)c2cc(Cl)c3c(c2C)O[C@@](C)([C@H]2CC[C@H](N(C)C)CC2)O3)c(=O)[nH]1` [VALEMETOSTAT] was run?
A: -8.7%

Q: And the inhibition [2]?
A: -1.8%

Q: What about the inhibition [3] of the same compound?
A: -4.8%

Q: And the inhibition [4]?
A: -2.7%

Q: And the inhibition [5]?
A: -6.5%

Q: What about the inhibition [6] of the same compound?
A: -1.5%

Q: What about the inhibition [7] of the same compound?
A: -4.2%

Q: And the inhibition [8]?
A: -0.2%

Q: What about the inhibition [9] of the same compound?
A: -5.4%

Q: What about the inhibition [10] of the same compound?
A: -1%

Q: And the inhibition [11]?
A: -3.6%

Q: What about the inhibition [12] of the same compound?
A: -4.5%

Q: What about the inhibition [13] of the same compound?
A: -2.1%

Q: What about the inhibition [14] of the same compound?
A: 5.2%

Q: What about the inhibition [15] of the same compound?
A: -5.8%

Q: What about the inhibition [16] of the same compound?
A: -2%

Q: What about the inhibition [17] of the same compound?
A: -5.6%

Q: And the inhibition [18]?
A: -2.1%

Q: What about the inhibition [19] of the same compound?
A: 5.9%

Q: What about the inhibition [20] of the same compound?
A: 24%

Q: And the inhibition [21]?
A: -1.1%

Q: What about the inhibition [22] of the same compound?
A: 0%

Q: And the inhibition [23]?
A: -2.6%
